Source: patent US10328075B2, “Method of treatment and compounds for use therein” (Baker Heart and Diabetes Institute, priority 2015, dated 2019)
No end group written: not given here.

Experiment: Body and organ weights of mice after myocardial I-R
Type: in vivo, mouse
Details: for Body Weight / Organ weight (mg), LV / Organ weight (mg), RV / Organ weight (mg), atria / Organ weight (mg), heart / Organ weight (mg), lung / Organ weight: body weight (mg/g), LV / Organ weight: body weight (mg/g), RV / Organ weight: body weight (mg/g), atria / Organ weight: body weight (mg/g), heart / Organ weight: body weight (mg/g), lung / Effect on total heart weight and LV weight normalized to body weight / Heart weight normalized to body weight versus sham: mice; for Body Weight (BW, g) / Organ weight: BW (mg/g), LV / Organ weight: BW (mg/g), RV / Organ weight: BW (mg/g), atria / Organ weight: BW (mg/g), heart / Organ weight: BW (mg/g), lung / BW: Table 7; for Effect on total heart weight and LV weight normalized to body weight: 7 days reperfusion; for Heart weight normalized to body weight versus sham: 48 h reperfusion
Protocol: Sample collection: After the study period (24 h, 48 h or 7 d), infarcted or sham-operated mice were euthanised, blood was collected by cardiac puncture using a 25G needle and 1 mL syringe coated with heparin (500 U/mL). Plasma was collected from mice after 24 h reperfusion to assess levels of cardiac troponin I (cTnI) levels; whole blood was collected from mice after 48 h reperfusion to assess total and differential white blood cell (WBC) numbers in the circulation. Lungs, atria, left and right ventricles were dissected, blotted dry, and weighed. Left ventricles (LV) were cut in half at the occlusion site, with the upper part fixed in Neutral Buffer Formalin (NBF, Thermo Fisher Scientific, Melbourne, Australia) and the apex placed in Tissue-Tek® optimal cutting temperature (OCT) compound (Tissue-Tek, Torrance, USA) for storage at −80° C.
Body and organ weights were measured to examine effects of drug treatments on systemic and cardiac characteristics in mice subjected to myocardial ischaemia-reperfusion injury or sham operation. Although there was no difference between the two vehicles (10% DMSO) in saline i.v. vs. 10% DMSO containing 0.8% Tween 20 in saline, i.p.), data from these two groups were combined for group analysis.
Assessment of cardiac inflammation in vivo: Lungs, atria, left and right ventricles from mice in Cohort 3 (following 60 min ischemia and 48 h reperfusion, optimal timing for detecting cardiac leukocyte infiltration) were dissected, blotted dry, and weighed. LV were cut in half at the occlusion site, and the apical half placed in Tissue-Tek® optimal cutting temperature compound (Tissue-Tek, Torrance, USA) for storage at −80° C. LV tissues were then sectioned at 6 μm for immunofluorescent detection of cardiac macrophage and neutrophil content. Sections were pre-incubated with 4% paraformaldehyde for 20 min and 10% normal goat serum for a further 30 min. Sections were then incubated at RT with either CD68+ primary antibody or Ly-6B.2 primary antibody (1:200, ABD Serotec, Raleigh, USA) for 1 h, followed by 30 min incubation with the Alexa Fluor 546 secondary antibody (1:200, Invitrogen, Carlsbad, USA). Finally, sections were incubated with 0.001% Hoechst 33342 (Invitrogen, Melbourne, Australia) for 30 min, to elicit nuclear staining. Single images were photographed using a Nikon A1R confocal microscope (Nikon Instruments Inc., NY, USA) under 20× magnification, and 9×9 single images were then automatically stitched together using NIS-Elements AR software (version 4.10 for Windows, Nikon Instruments Inc., NY, USA) to form each complete composite LV image. The images for infarct area were captured under 40× magnification, and the stitched images were then analyzed using Fiji software (version 1.48c for Max OS X, National Institutes of Health, USA). The threshold was set for each image, to enable optimal sensing and quantification of red fluorescence intensity above threshold, and the software then automatically quantified these red fluorescent signals.

| Compound | Body Weight (Table 5, 48 h myocardial I-R) [g] | Organ weight (mg), LV (Table 5, 48 h myocardial I-R) [mg] | Organ weight (mg), RV (Table 5, 48 h myocardial I-R) [mg] | Organ weight (mg), atria (Table 5, 48 h myocardial I-R) [mg] | Organ weight (mg), heart (Table 5, 48 h myocardial I-R) [mg] | Organ weight (mg), lung (Table 5, 48 h myocardial I-R) [mg] | Organ weight: body weight (mg/g), LV (Table 5, 48 h myocardial I-R) [mg/g] | Organ weight: body weight (mg/g), RV (Table 5, 48 h myocardial I-R) [mg/g] | Organ weight: body weight (mg/g), atria (Table 5, 48 h myocardial I-R) [mg/g] | Organ weight: body weight (mg/g), heart (Table 5, 48 h myocardial I-R) [mg/g] | Organ weight: body weight (mg/g), lung (Table 5, 48 h myocardial I-R) [mg/g] | Body Weight (Table 6, 7 d myocardial I-R) [g] | Organ weight (mg), LV (Table 6, 7 d myocardial I-R) [mg] | Organ weight (mg), RV (Table 6, 7 d myocardial I-R) [mg] | Organ weight (mg), atria (Table 6, 7 d myocardial I-R) [mg] | Organ weight (mg), heart (Table 6, 7 d myocardial I-R) [mg] | Organ weight (mg), lung (Table 6, 7 d myocardial I-R) [mg] | Organ weight: body weight (mg/g), LV (Table 6, 7 d myocardial I-R) [mg/g] | Organ weight: body weight (mg/g), RV (Table 6, 7 d myocardial I-R) [mg/g] | Organ weight: body weight (mg/g), atria (Table 6, 7 d myocardial I-R) [mg/g] | also measured |
| --- | --- | --- | --- | --- | --- | --- | --- | --- | --- | --- | --- | --- | --- | --- | --- | --- | --- | --- | --- | --- | --- |
| CC(C)C1C(NC(=O)Nc2ccc(Cl)cc2)C(=O)N(c2ccccc2)N1C (stereo not drawn) [BIDI-002] | 27 ± 0.6 | 94.9 ± 7.5 | 22.9 ± 1.7 | 9.9 ± 2.8 | 132 ± 11 | 154 ± 6 | 3.5 ± 0.2 | 0.8 ± 0.0 | 0.5 ± 0.1 | 4.8 ± 0.3 | 5.7 ± 0.1 | 23.8 ± 0.9 | 89.0 ± 4.2 | 21.4 ± 1.6 | 7.8 ± 0.5 | 118 ± 6 | 138 ± 7 | 3.7 ± 0.1 | 0.9 ± 0.1 | 0.3 ± 0.0 | Organ weight: body weight (mg/g), heart (Table 6, 7 d myocardial I-R): 5.0 ± 0.2 mg/g; Organ weight: body weight (mg/g), lung (Table 6, 7 d myocardial I-R): 5.8 ± 0.3 mg/g; Body Weight (BW, g) (48 h myocardial I-R): 27 ± 1 g; Organ weight: BW (mg/g), LV (48 h myocardial I-R): 3.5 ± 0.2 mg/g; Organ weight: BW (mg/g), RV (48 h myocardial I-R): 0.8 ± 0.0 mg/g; Organ weight: BW (mg/g), atria (48 h myocardial I-R): 0.5 ± 0.1 mg/g; Organ weight: BW (mg/g), heart (48 h myocardial I-R): 4.8 ± 0.3 mg/g; Organ weight: BW (mg/g), lung (48 h myocardial I-R): 5.7 ± 0.1 mg/g; BW (7 days myocardial I-R): 24 ± 1 g; Organ weight: BW (mg/g), LV (7 days myocardial I-R): 3.7 ± 0.1 mg/g; Organ weight: BW (mg/g), RV (7 days myocardial I-R): 0.9 ± 0.1 mg/g; Organ weight: BW (mg/g), atria (7 days myocardial I-R): 0.3 ± 0.0 mg/g; Organ weight: BW (mg/g), heart (7 days myocardial I-R): 5.0 ± 0.2 mg/g; Organ weight: BW (mg/g), lung (7 days myocardial I-R): 5.8 ± 0.3 mg/g; Effect on total heart weight and LV weight normalized to body weight: not; Effect on total heart weight and LV weight normalized to body weight (listed as Cmpd43): not shared |
| Ac2-26: Annexin-A1 N-terminal peptide, peptide ANX-A1 mimetic (Ac-AMVSEFLKQAWFIENEEQEYVQTVK; UniProt P04083 2-26, looked up, fragment) | 28.2 ± 1.0 | 109.8 ± 5.5 | 24.3 ± 0.9 | 10.1 ± 0.7 | 144 ± 6 | 145 ± 9 | 3.8 ± 0.2 | 0.8 ± 0.0 | 0.3 ± 0.0 | 5.0 ± 0.2 | 5.0 ± 0.3 | 25.6 ± 1.0 | 102.9 ± 6.5 | 17.8 ± 2.4 | 8.3 ± 1.0 | 129 ± 10 | 147 ± 7 | 4.0 ± 0.2 | 0.7 ± 0.1 | 0.3 ± 0.0 | Organ weight: body weight (mg/g), heart (Table 6, 7 d myocardial I-R): 5.0 ± 0.2 mg/g; Organ weight: body weight (mg/g), lung (Table 6, 7 d myocardial I-R): 5.7 ± 0.2 mg/g; Heart weight normalized to body weight versus sham: significantly increased; Effect on total heart weight and LV weight normalized to body weight: not |
| COc1cccc(Cc2cc(C)nn(C(C)C(=O)Nc3ccc(Br)cc3)c2=O)c1 (stereo not drawn) [BIDI-001, N-(4-bromophenyl)-2-[5-(3-methoxybenzyl)-3-methyl-6-oxo-6H-pyridazin-1-yl]-propionamide] | 28.2 ± 1.0 | 105.0 ± 8.3 | 24.9 ± 3.1 | 14.6 ± 1.2 | 147 ± 11 | 157 ± 6 | 3.7 ± 0.2 | 1.0 ± 0.0 | 0.5 ± 0.0 | 5.2 ± 0.3 | 5.6 ± 0.2 | 24.3 ± 0.5 | 70.1 ± 2.9 | 19.0 ± 1.0 | 7.3 ± 0.8 | 96 ± 4 | 132 ± 3 | 2.9 ± 0.1 | 0.8 ± 0.3 | 0.3 ± 0.0 | Organ weight: body weight (mg/g), heart (Table 6, 7 d myocardial I-R): 4.0 ± 0.1 mg/g; Organ weight: body weight (mg/g), lung (Table 6, 7 d myocardial I-R): 4.7 ± 0.7 mg/g; Body Weight (BW, g) (48 h myocardial I-R): 28 ± 1 g; Organ weight: BW (mg/g), LV (48 h myocardial I-R): 3.7 ± 0.2 mg/g; Organ weight: BW (mg/g), RV (48 h myocardial I-R): 1.0 ± 0.0 mg/g; Organ weight: BW (mg/g), atria (48 h myocardial I-R): 0.5 ± 0.0 mg/g; Organ weight: BW (mg/g), heart (48 h myocardial I-R): 5.2 ± 0.3 mg/g; Organ weight: BW (mg/g), lung (48 h myocardial I-R): 5.6 ± 0.2 mg/g; BW (7 days myocardial I-R): 24 ± 1 g; Organ weight: BW (mg/g), LV (7 days myocardial I-R): 2.9 ± 0.1 mg/g; Organ weight: BW (mg/g), RV (7 days myocardial I-R): 0.8 ± 0.3 mg/g; Organ weight: BW (mg/g), atria (7 days myocardial I-R): 0.3 ± 0.0 mg/g; Organ weight: BW (mg/g), heart (7 days myocardial I-R): 4.0 ± 0.1 mg/g; Organ weight: BW (mg/g), lung (7 days myocardial I-R): 5.4 ± 0.1 mg/g; Heart weight normalized to body weight versus sham: significantly increased; Effect on total heart weight and LV weight normalized to body weight: significantly reduced |
